According to ChEMBL document CHEMBL3745672, “Novel compounds reducing IRS-1 serine phosphorylation for treatment of diabetes” (Bioorg Med Chem Lett, 2016):
One block for each molecule: values may come before it. Calls of active or inactive are those of the source. The calls are words filed in the database; no cut-off is given here.

How the values were obtained:
[1] = target: T1, Mitogen-activated protein kinase 8 (Homo sapiens, UniProt P45983); assay: Inhibition of JNK1 (unknown origin)
[2] = test system: HEK293; assay: Cytotoxicity against HEK293 after 24 hrs by CellTiter-Glo luminescent cell viability assay; type: cell-based; conditions: Homo sapiens, HEK293, 24 h
[3] = target: T1, Mitogen-activated protein kinase 8; assay: Inhibition of JNK1 (unknown origin) expressed in HEK293 cells assessed as anisomycin-induced JNK phosphorylation at 10 uM incubated for 30 mins by Western blot analysis relative to anisomycin; type: cell-based; design: scale not given: the % may be the effect or the level left
[4] = target: T1, Mitogen-activated protein kinase 8; assay: Inhibition of JNK1 (unknown origin) expressed in HEK293 cells assessed as anisomycin-induced IRS-1(Ser307) phosphorylation at 10 uM incubated for 30 mins by Western blot analysis relative to anisomycin; type: cell-based; design: scale not given: the % may be the effect or the level left
[5] = target: T1, Mitogen-activated protein kinase 8; assay: Inhibition of JNK1 (unknown origin) expressed in HEK293 cells assessed as anisomycin-induced c-Jun phosphorylation at 10 uM incubated for 30 mins by Western blot analysis relative to anisomycin; type: cell-based; design: scale not given: the % may be the effect or the level left
[6] = target: Mitogen-activated protein kinase 8 (Rattus norvegicus) (UniProt P49185); assay: Inhibition of JNK1 phosphorylation in rat RINm5F cells assessed as suppression of albumin-conjugated palmitate-induced IRS-1 Ser307 phosphorylation incubated for 8 hrs; type: cell-based; design: concentration or dose not given beside the values; conditions: concentration not given here
[7] = target: Mitogen-activated protein kinase 8 (Rattus norvegicus) (UniProt P49185); assay: Inhibition of albumin-conjugated palmitate-induced JNK1/2 phosphorylation assessed as JNK phosphorylation level in rat RINm5F cells incubated for 8 hrs; type: cell-based

T1 sequence (P45983 whole entry): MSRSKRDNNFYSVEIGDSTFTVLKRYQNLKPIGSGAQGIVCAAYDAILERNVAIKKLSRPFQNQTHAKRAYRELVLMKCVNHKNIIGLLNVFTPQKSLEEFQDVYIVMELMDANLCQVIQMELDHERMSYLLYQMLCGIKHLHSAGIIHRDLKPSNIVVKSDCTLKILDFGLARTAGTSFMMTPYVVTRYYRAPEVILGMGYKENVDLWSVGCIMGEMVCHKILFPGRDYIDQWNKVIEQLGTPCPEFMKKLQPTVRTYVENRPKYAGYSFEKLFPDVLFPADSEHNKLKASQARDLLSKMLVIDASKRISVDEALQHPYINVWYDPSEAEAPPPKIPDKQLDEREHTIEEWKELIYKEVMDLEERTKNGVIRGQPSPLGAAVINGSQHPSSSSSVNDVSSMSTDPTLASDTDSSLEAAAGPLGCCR
Sequence of Mitogen-activated protein kinase 8 (Rattus norvegicus) (P49185 whole entry): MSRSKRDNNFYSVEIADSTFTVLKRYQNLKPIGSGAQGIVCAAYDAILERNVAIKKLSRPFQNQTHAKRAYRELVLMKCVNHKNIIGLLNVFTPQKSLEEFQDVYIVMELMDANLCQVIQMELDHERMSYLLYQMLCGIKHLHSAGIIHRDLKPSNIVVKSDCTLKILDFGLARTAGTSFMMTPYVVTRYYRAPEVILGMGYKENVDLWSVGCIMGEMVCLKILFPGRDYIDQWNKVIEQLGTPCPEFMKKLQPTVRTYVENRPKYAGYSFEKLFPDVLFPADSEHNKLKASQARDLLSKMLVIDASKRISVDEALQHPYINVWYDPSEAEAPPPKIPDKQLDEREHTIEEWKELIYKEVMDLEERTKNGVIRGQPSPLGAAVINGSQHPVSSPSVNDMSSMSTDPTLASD

SMILES: Cn1c(=O)c(Oc2c(Cl)cccc2Cl)cc2cnc(NCCc3ccccn3)nc21
IC50 [1]: > 23 µM | IC50 [2]: > 30 µM | Activity [3]: 81.6% | Activity [4]: 14.3% | Activity [5]: 116%

SMILES: Cn1c(=O)c(Oc2ccc(F)cc2F)cc2cnc(N3CCCC(O)C3)nc21 (stereo not given)
IC50 [1]: > 23 µM | IC50 [2]: > 30 µM | Activity [3]: 38.1% | Activity [4]: 88.7% | Activity [5]: 104%

SMILES: Cn1c(=O)c(Oc2ccc(F)cc2F)cc2cnc(N3CCC(O)CC3)nc21
IC50 [1]: > 23 µM | IC50 [2]: > 30 µM | Activity [3]: 122% | Activity [4]: 124% | Activity [5]: 131%

SMILES: Cn1c(=O)c(Oc2c(Cl)cccc2Cl)cc2cnc(Nc3ccc(N4CCCCC4)cc3)nc21
IC50 [1]: > 23 µM | IC50 [2]: > 30 µM | Activity [3]: 129% | Activity [4]: 46.3% | Activity [5]: 108%

SMILES: Cn1c(=O)c(Oc2ccc(F)cc2F)cc2cnc(NCc3cccc(C(F)(F)F)c3)nc21
IC50 [1]: > 23 µM | IC50 [2]: > 30 µM | Activity [3]: 94.1% | Activity [4]: 0% | Activity [5]: 101%

SMILES: Cn1c(=O)c(Oc2c(Cl)cccc2Cl)cc2cnc(Nc3ccc(N4CCCC4)cc3)nc21
IC50 [1]: > 23 µM | IC50 [2]: > 30 µM | Activity [3]: 136% | Activity [4]: 165% | Activity [5]: 104%

SMILES: Cn1c(=O)c(Oc2c(Cl)cccc2Cl)cc2cnc(N3CCCCC3CO)nc21 (stereo not given)
IC50 [1]: > 23 µM | IC50 [2]: > 30 µM | Activity [3]: 110% | Activity [4]: 110% | Activity [5]: 118%

SMILES: Cn1c(=O)c(Oc2c(Cl)cccc2Cl)cc2cnc(N3CCC(O)CC3)nc21
IC50 [1]: > 23 µM | IC50 [2]: > 30 µM | Activity [3]: 96.3% | Activity [4]: 40.5% | Activity [5]: 99.1%

SMILES: Cn1c(=O)c(Oc2c(Cl)cccc2Cl)cc2cnc(NCCN3CCOCC3)nc21
IC50 [1]: 27.1 µM | IC50 [2]: > 30 µM | Activity [3]: 139% | Activity [4]: 71.3% | Activity [5]: 114%

SMILES: Cn1c(=O)c(Oc2ccc(F)cc2F)cc2cnc(N3CCC(CO)CC3)nc21
IC50 [1]: > 23 µM | IC50 [2]: > 30 µM | Activity [3]: 91.6% | Activity [4]: 102% | Activity [5]: 121%

SMILES: Cn1c(=O)c(Oc2c(Cl)cccc2Cl)cc2cnc(N3CCCC(CO)C3)nc21 (stereo not given)
IC50 [1]: > 23 µM | IC50 [2]: > 30 µM | Activity [3]: 99.3% | Activity [4]: 99.3% | Activity [5]: 103%

SMILES: Cn1c(=O)c(Oc2ccc(F)cc2F)cc2cnc(Nc3ccc(N4CCCC4)cc3)nc21
IC50 [1]: > 23 µM | IC50 [2]: > 30 µM | Activity [3]: 98.9% | Activity [4]: 98.9% | Activity [5]: 108%

SMILES: Cn1c(=O)c(Oc2ccc(F)cc2F)cc2cnc(NC(CCO)CCO)nc21 [PAMAPIMOD]
IC50 [2]: > 30 µM | Activity [4]: 14% | Activity [5]: 94%

SMILES: Cn1c(=O)c(Oc2ccc(F)cc2F)cc2cnc(N3CCCC(CO)C3)nc21 (stereo not given)
IC50 [1]: > 23 µM | IC50 [2]: > 30 µM | Activity [3]: 21.1% | Activity [4]: 79.4% | Activity [5]: 103%

SMILES: Cn1c(=O)c(Oc2ccc(F)cc2F)cc2cnc(N3CCC(O)C3)nc21 (stereo not given)
IC50 [1]: > 23 µM | IC50 [2]: > 30 µM | Activity [3]: 131% | Activity [4]: 51.1% | Activity [5]: 111%

SMILES: Cn1c(=O)c(Oc2c(Cl)cccc2Cl)cc2cnc(N3CCC(CO)CC3)nc21
IC50 [1]: > 23 µM | IC50 [2]: > 30 µM | Activity [3]: 119% | Activity [4]: 127% | Activity [5]: 149%

SMILES: Cn1c(=O)c(Oc2c(Cl)cccc2Cl)cc2cnc(N3CCCC(O)C3)nc21 (stereo not given)
IC50 [1]: > 23 µM | IC50 [2]: > 30 µM | Activity [3]: 36.2% | Activity [4]: 93.6% | Activity [5]: 133%

SMILES: Cn1c(=O)c(Oc2c(Cl)cccc2Cl)cc2cnc(NC3CCCC3)nc21
IC50 [1]: 19.3 µM | IC50 [2]: > 30 µM | Activity [3]: 108% | Activity [4]: 8.18% | Activity [5]: 115%

SMILES: Cn1c(=O)c(Oc2c(Cl)cccc2Cl)cc2cnc(NCc3ccccn3)nc21
IC50 [1]: > 23 µM | IC50 [2]: > 30 µM | Activity [3]: 35.3% | Activity [4]: 2.15% | Activity [5]: 115%

SMILES: O=C(O)c1ccccc1Nc1ccnc(Nc2cccc(O)c2)n1
IC50 [2]: > 30 µM | Activity [4]: 161% | Activity [5]: 88%

SMILES: Cn1c(=O)c(Oc2c(Cl)cccc2Cl)cc2cnc(N3CCC(O)C3)nc21 (stereo not given)
IC50 [1]: > 23 µM | IC50 [2]: > 30 µM | Activity [3]: 74.5% | Activity [4]: 74.5% | Activity [5]: 82.5%

SMILES: Cn1c(=O)c(Oc2ccc(F)cc2F)cc2cnc(NCc3ccccn3)nc21
IC50 [1]: > 23 µM | IC50 [2]: > 30 µM | Activity [3]: 68.2% | Activity [4]: 68.2% | Activity [5]: 86.2%

SMILES: Cn1c(=O)c(Oc2ccc(F)cc2F)cc2cnc(NCCN3CCOCC3)nc21
IC50 [1]: > 23 µM | IC50 [2]: > 30 µM | Activity [3]: 96.1% | Activity [4]: 26.7% | Activity [5]: 102%

SMILES: Cn1c(=O)c(Oc2c(Cl)cccc2Cl)cc2cnc(Nc3ccc(N4CCC(O)CC4)cc3)nc21
IC50 [1]: > 23 µM | inhibition [6]: 58% | inhibition ([7]; concentration not given here): 54% | IC50 [2]: > 30 µM | Activity [3]: 58.9% | Activity [4]: 9.09% | Activity [5]: 74%

Now from value to molecule, other results behind:

IC50 [1]: 4.22 µM | Activity [4]: 15% | Activity [5]: 81%
SMILES: CC(C)Nc1ncc2cc(Oc3ccc(F)cc3F)c(=O)n(C)c2n1
IC50 [2]: > 30 µM

IC50 [1]: 10.9 µM | Activity [3]: 81% | Activity [4]: 0% | Activity [5]: 119%
SMILES: Cn1c(=O)c(Oc2ccc(F)cc2F)cc2cnc(NC3CCNCC3)nc21
IC50 [2]: > 30 µM

IC50 [1]: 18.9 µM | Activity [3]: 75.8% | Activity [4]: 12.2% | Activity [5]: 67.5%
SMILES: Cn1c(=O)c(Oc2ccc(F)cc2F)cc2cnc(NCCNS(C)(=O)=O)nc21
IC50 [2]: > 30 µM

IC50 [1]: 6.73 µM | Activity [3]: 84% | Activity [4]: 0% | Activity [5]: 119%
SMILES: Cn1c(=O)c(Oc2ccc(F)cc2F)cc2cnc(NC3CCCCCC3)nc21
IC50 [2]: > 26.7 µM

IC50 [1]: 2.75 µM | Activity [4]: 0% | Activity [5]: 42%
SMILES: CCOC(=O)N1CCC(Nc2ncc3cc(Oc4ccc(F)cc4F)c(=O)n(C)c3n2)CC1
IC50 [2]: > 30 µM

IC50 [1]: 16.1 µM | inhibition [6]: 93% | inhibition ([7]; concentration not given here): 59% | Activity [3]: 37.6% | Activity [4]: 0% | Activity [5]: 32.4%
SMILES: Cn1c(=O)c(Oc2ccc(F)cc2F)cc2cnc(NC3CCCCC3)nc21
IC50 [2]: 14 µM

IC50 [1]: 2.77 µM | inhibition [6]: 87% | inhibition [7]: inactive | Activity [3]: 52.9% | Activity [4]: 0% | Activity [5]: 73.5%
SMILES: Cn1c(=O)c(Oc2ccc(F)cc2F)cc2cnc(NCCCNS(C)(=O)=O)nc21
IC50 [2]: > 30 µM

IC50 [1]: 0.05 µM | Activity [4]: 69% | Activity [5]: 46%
SMILES: O=C(O)c1ccccc1Nc1ccnc(Nc2cccc(F)c2)n1
IC50 [2]: > 30 µM

IC50 [1]: 0.17 µM | Activity [4]: 97% | Activity [5]: 104%
SMILES: NC(=O)c1ccccc1Nc1ccnc(Nc2cccc(O)c2)n1
IC50 [2]: > 30 µM

IC50 [1]: 14.9 µM | Activity [3]: 96.1% | Activity [4]: 14.7% | Activity [5]: 128%
SMILES: Cn1c(=O)c(Oc2c(Cl)cccc2Cl)cc2cnc(NC3CC3)nc21
IC50 [2]: > 30 µM

IC50 [1]: 5.93 µM | inhibition [6]: 61% | inhibition [7]: inactive | Activity [3]: 40% | Activity [4]: 0% | Activity [5]: 66.5%
SMILES: Cn1c(=O)c(Oc2ccc(F)cc2F)cc2cnc(NC3CCCC3)nc21
IC50 [2]: > 30 µM

IC50 [1]: 7.17 µM | Activity [3]: 174% | Activity [4]: 2.61% | Activity [5]: 142%
SMILES: Cn1c(=O)c(Oc2ccc(F)cc2F)cc2cnc(NC3CC3)nc21
IC50 [2]: > 30 µM
